Measured values reported in patent EP3168210A1, “CRYSTALLINE FORMS OF ENTINOSTAT” (SANDOZ AG, priority 2015, dated 2017).

Legend:
[1] = Compression study (hydraulic press, polymorphic form after compression); format: physicochemical; settings: about 100 mg powder compressed to 5 tonnes/cm^2, held for 1h; slight crystallinity decrease
Experimental: The compression study was performed using a Specac hydraulic press. A sample powder (approx. 100mg) is loaded into a metal die (ring shaped metal holder). A snugly fitted billet (a cylinder-shaped metal rod) is then placed into the die, on top of the powder sample. The die and billet assembly is then placed into the hydraulic press and compressed to a pressure of 5 tonnes/cm^2 and held under that pressure for 1h. The billet is then removed and the disc extracted from the die.

[2] = Water solubility of crystal forms measured by HPLC; format: physicochemical; settings: 25°C
Experimental: The water solubilities at 25°C of different crystal forms of Entinostat have been measured by HPLC and are set out in the following table: […]

Row | polymorphic form after compression [1] | Water solubility [2] [µg/mL] | Structure (SMILES)
1 | maintain the same polymorphic form | 48 | Nc1ccccc1NC(=O)c1ccc(CNC(=O)OCc2cccnc2)cc1 [Form A, (pyridin-3-yl)methyl 4-(2-aminophenylcarbamoyl)benzylcarbamate]
2 | maintain the same polymorphic form | 28 | Nc1ccccc1NC(=O)c1ccc(CNC(=O)OCc2cccnc2)cc1 [Form B, (pyridin-3-yl)methyl 4-(2-aminophenylcarbamoyl)benzylcarbamate]
3 | maintain the same polymorphic form | 130 | Nc1ccccc1NC(=O)c1ccc(CNC(=O)OCc2cccnc2)cc1 [Form D, (pyridin-3-yl)methyl 4-(2-aminophenylcarbamoyl)benzylcarbamate]
